{
  "source": "paper PMC10290954",
  "about": "(Nature Metabolism, 2023)",
  "type_in_all_cases": "cell-based",
  "key": {"[1]": {"tested_on": "mouse islets", "assay": "Mouse islet perifusion, control and Gipr beta-cell knockout islets ± Ex9 (Fig. 1a), insulin secretion", "conditions": "Ex9 1 μM", "description": "(§1) In brief, islets were individually picked to ensure consistency across chambers with respect to both number and size. […] Insulin values were measured with a Lumit insulin immunoassay (Promega) using an EnVision plate reader (PerkinElmer)."}, "[2]": {"tested_on": "mouse islets", "assay": "Mouse islet perifusion with incretin receptor antagonists (Fig. 1b), insulin secretion", "conditions": "antagonists 1 μM, tirzepatide 0–100 nM", "description": "as §1"}, "[3]": {"tested_on": "human islets", "assay": "Human islet perifusion, insulin secretion (Fig. 2)", "conditions": "human islets stimulated with TZP; for TZP insulin secretion iAUC, Percent Control: % of Average Control (PBS); for TZP insulin secretion iAUC: PBS or antagonist(s) as labelled", "description": "(§2) Human islets were obtained from both the Alberta Diabetes Institute and the Integrated Islet Distribution Program. All islets were obtained from consenting donors. Details for the general perifusion protocol have been previously described[21] and are similar to the mouse perifusion protocol. […] Each set of human islets consisted of n = 3 for each condition. These were averaged to generate a single data point (Fig. 2c). Insulin values were measured with a Lumit insulin immunoassay (Promega) using an EnVision plate reader (PerkinElmer). For the glucagon secretion experiments (Fig. 3), the average glucagon values were calculated during control (minutes 35–45) and stimulated (minutes 55–65) conditions. All peptides were used at 30 nM concentrations based on previous work[16]. Amino acids were used at concentrations of 3 mM based on previous work[11]. Glucagon was measured with a Lumit Glucagon Immunoassay Kit (cat. no. CS3037A02; Promega) using an EnVision plate reader (PerkinElmer). Somatostatin was measured with an ELISA assay (cat. no. FEK-060-14; Phoenix Pharmaceuticals). All data are expressed as the measured concentration relative to both flow rate and islet number (insulin, ng ml^–1 × (1/200 µl ml^–1) × (1/75 islets); glucagon, pM × (1/200 µl ml^–1) × (1/75 islets); somatostatin, pg ml^–1 × (1/200 µl ml^–1) × (1/75 islets))[49]. Human pancreatic islets and pancreas tissue were isolated from deceased donors under ethical approval from the Human Research Ethics Board of the University of Alberta (Pro00013094, Pro00001754) and obtained from the NIDDK-funded Integrated Islet Distribution Program (IIDP) (RRID: SCR _014387). All donors’ families gave informed consent for the use of pancreatic tissue in research and were not financially compensated."}, "[4]": {"tested_on": "human islets", "assay": "Human islet perifusion, insulin secretion with Ex9 or hGIP(3-30) (Extended Data Fig. 2)", "design": "key to iAUC: insulin iAUC, ng/ml × (1/200 µl/ml) × (1/75 islets), baseline = first point", "conditions": "insulin secretion; for Mean (One way ANOVA): iAUC, Control = 1, mean of n = 3; for iAUC: TZP + PBS or labelled antagonist", "description": "as §2\nThe integrated area under the curve (iAUC) was calculated for both glucose and tirzepatide stimulated insulin secretion using the value of the first time point as the baseline. All values are mean + /- SEM, n = 3/group. A one-way ANOVA with Tukey’s posthoc test was used. Source data"}},
  "data": [
    {"substance": "exendin(9-39) [Ex9]", "values": [
      {"measurement": "Effect on tirzepatide-stimulated insulin secretion", "setting": "[1]", "result": "completely blocked insulin secretion in response to tirzepatide"},
      {"measurement": "Effect on tirzepatide-stimulated insulin secretion", "setting": "[2]", "result": "prevented insulin secretion in response to tirzepatide"},
      {"measurement": "TZP insulin secretion iAUC, Percent Control", "setting": "[3]; donor R434, replicate 1", "result": 81.0, "unit": "%Control"},
      {"measurement": "TZP insulin secretion iAUC, Percent Control", "setting": "[3]; donor R434, replicate 2", "result": 70.5, "unit": "%Control"},
      {"measurement": "TZP insulin secretion iAUC, Percent Control", "setting": "[3]; donor R434, replicate 3", "result": 110.7, "unit": "%Control"},
      {"measurement": "TZP insulin secretion iAUC", "setting": "[3]; donor R434, replicate 1", "result": 149.1},
      {"measurement": "TZP insulin secretion iAUC", "setting": "[3]; donor R434, replicate 2", "result": 129.7},
      {"measurement": "TZP insulin secretion iAUC", "setting": "[3]; donor R434, replicate 3", "result": 203.7},
      {"measurement": "TZP insulin secretion iAUC, Percent Control", "setting": "[3]; donor R443, replicate 1", "result": 152.6, "unit": "%Control"},
      {"measurement": "TZP insulin secretion iAUC, Percent Control", "setting": "[3]; donor R443, replicate 2", "result": 43.9, "unit": "%Control"},
      {"measurement": "TZP insulin secretion iAUC, Percent Control", "setting": "[3]; donor R443, replicate 3", "result": 123.9, "unit": "%Control"},
      {"measurement": "TZP insulin secretion iAUC", "setting": "[3]; donor R443, replicate 1", "result": 9.764},
      {"measurement": "TZP insulin secretion iAUC", "setting": "[3]; donor R443, replicate 2", "result": 2.809},
      {"measurement": "TZP insulin secretion iAUC", "setting": "[3]; donor R443, replicate 3", "result": 7.929},
      {"measurement": "TZP insulin secretion iAUC, Percent Control", "setting": "[3]; donor R444, replicate 1", "result": 49.3, "unit": "%Control"},
      {"measurement": "TZP insulin secretion iAUC, Percent Control", "setting": "[3]; donor R444, replicate 2", "result": 46.5, "unit": "%Control"},
      {"measurement": "TZP insulin secretion iAUC, Percent Control", "setting": "[3]; donor R444, replicate 3", "result": 59.5, "unit": "%Control"},
      {"measurement": "TZP insulin secretion iAUC", "setting": "[3]; donor R444, replicate 1", "result": 12.31},
      {"measurement": "TZP insulin secretion iAUC", "setting": "[3]; donor R444, replicate 2", "result": 11.61},
      {"measurement": "TZP insulin secretion iAUC", "setting": "[3]; donor R444, replicate 3", "result": 14.86},
      {"measurement": "TZP insulin secretion iAUC, Percent Control", "setting": "[3]; donor R448, replicate 1", "result": 95.4, "unit": "%Control"},
      {"measurement": "TZP insulin secretion iAUC, Percent Control", "setting": "[3]; donor R448, replicate 2", "result": 86.1, "unit": "%Control"},
      {"measurement": "TZP insulin secretion iAUC, Percent Control", "setting": "[3]; donor R448, replicate 3", "result": 78.6, "unit": "%Control"},
      {"measurement": "TZP insulin secretion iAUC", "setting": "[3]; donor R448, replicate 1", "result": 169.1},
      {"measurement": "TZP insulin secretion iAUC", "setting": "[3]; donor R448, replicate 2", "result": 152.5},
      {"measurement": "TZP insulin secretion iAUC", "setting": "[3]; donor R448, replicate 3", "result": 139.2},
      {"measurement": "TZP insulin secretion iAUC, Percent Control", "setting": "[3]; donor R449, replicate 1", "result": 10.8, "unit": "%Control"},
      {"measurement": "TZP insulin secretion iAUC, Percent Control", "setting": "[3]; donor R449, replicate 2", "result": 15.5, "unit": "%Control"},
      {"measurement": "TZP insulin secretion iAUC, Percent Control", "setting": "[3]; donor R449, replicate 3", "result": 25.1, "unit": "%Control"},
      {"measurement": "TZP insulin secretion iAUC", "setting": "[3]; donor R449, replicate 1", "result": 14.8},
      {"measurement": "TZP insulin secretion iAUC", "setting": "[3]; donor R449, replicate 2", "result": 21.27},
      {"measurement": "TZP insulin secretion iAUC", "setting": "[3]; donor R449, replicate 3", "result": 34.32},
      {"measurement": "TZP insulin secretion iAUC, Percent Control", "setting": "[3]; donor R451, replicate 1", "result": 39.0, "unit": "%Control"},
      {"measurement": "TZP insulin secretion iAUC, Percent Control", "setting": "[3]; donor R451, replicate 2", "result": 22.6, "unit": "%Control"},
      {"measurement": "TZP insulin secretion iAUC, Percent Control", "setting": "[3]; donor R451, replicate 3", "result": 24.7, "unit": "%Control"},
      {"measurement": "TZP insulin secretion iAUC", "setting": "[3]; donor R451, replicate 1", "result": 36.08},
      {"measurement": "TZP insulin secretion iAUC", "setting": "[3]; donor R451, replicate 2", "result": 20.91},
      {"measurement": "TZP insulin secretion iAUC", "setting": "[3]; donor R451, replicate 3", "result": 22.84},
      {"measurement": "TZP insulin secretion iAUC, Percent Control", "setting": "[3]; donor S1472, replicate 1", "result": 91.9, "unit": "%Control"},
      {"measurement": "TZP insulin secretion iAUC, Percent Control", "setting": "[3]; donor S1472, replicate 2", "result": 146.0, "unit": "%Control"},
      {"measurement": "TZP insulin secretion iAUC, Percent Control", "setting": "[3]; donor S1472, replicate 3", "result": 127.6, "unit": "%Control"},
      {"measurement": "TZP insulin secretion iAUC", "setting": "[3]; donor S1472, replicate 1", "result": 50.05},
      {"measurement": "TZP insulin secretion iAUC", "setting": "[3]; donor S1472, replicate 2", "result": 79.46},
      {"measurement": "TZP insulin secretion iAUC", "setting": "[3]; donor S1472, replicate 3", "result": 69.48},
      {"measurement": "TZP insulin secretion iAUC, Percent Control", "setting": "[3]; donor S2886, replicate 1", "result": 19.6, "unit": "%Control"},
      {"measurement": "TZP insulin secretion iAUC, Percent Control", "setting": "[3]; donor S2886, replicate 2", "result": 20.0, "unit": "%Control"},
      {"measurement": "TZP insulin secretion iAUC, Percent Control", "setting": "[3]; donor S2886, replicate 3", "result": 50.9, "unit": "%Control"},
      {"measurement": "TZP insulin secretion iAUC", "setting": "[3]; donor S2886, replicate 1", "result": 36.46},
      {"measurement": "TZP insulin secretion iAUC", "setting": "[3]; donor S2886, replicate 2", "result": 37.22},
      {"measurement": "TZP insulin secretion iAUC", "setting": "[3]; donor S2886, replicate 3", "result": 94.97},
      {"measurement": "Mean (One way ANOVA)", "setting": "[4]; donor R464, R464 (3-30) TZP", "result": 1.267},
      {"measurement": "Mean (One way ANOVA)", "setting": "[4]; donor S5423, SAMN5423 (3-30) TZP", "result": 1.135},
      {"measurement": "iAUC", "setting": "[4]; donor R464, replicate 1", "result": 1.277},
      {"measurement": "iAUC", "setting": "[4]; donor R464, replicate 2", "result": 1.0253},
      {"measurement": "iAUC", "setting": "[4]; donor R464, replicate 3", "result": 1.497},
      {"measurement": "iAUC", "setting": "[4]; donor S5423, replicate 1", "result": 1.294},
      {"measurement": "iAUC", "setting": "[4]; donor S5423, replicate 2", "result": 1.08},
      {"measurement": "iAUC", "setting": "[4]; donor S5423, replicate 3", "result": 1.031}
    ]}
  ]
}
